{"source": "patent US11492667B2", "about": "“Compositions and methods for detecting molecular targets on chromosomal DNA” (New England Biolabs, Inc., priority 2020, dated 2022)", "key": {"[1]": {"test_system": "antibody-Protein A/G complex", "experiment": "Effect of heparin on antibody-Protein A/G complex (magnetic beads, SDS gel)", "type": "binding", "conditions": "0.125, 0.25, 0.5 and 1 mg/ml Heparin, 30 minutes, room temperature, Sodium Salt", "text": "The numbers on the top indicate added heparin quantity in the reaction mgs/ml.\nAntibody heavy and light chains that are bound to Protein A/G can be released by boiling and resolved on an SDS gel (B). Any antibody that was free in solution having been eluted or displaced by heparin from Protein A/G could be visualized without boiling (E).\nTo determine the effect of heparin on the formation of the antibody-Protein A/G complex, 5 mgs of immobilized and covalently cross-linked protein A/G magnetic beads were bound to 50 μgs of IgG molecules in a 50 μl reaction volume containing 1×PBST at room temperature for 30 minutes. The complex was washed 3 times using 1 ml of 1×PBST and incubated with 0.125, 0.25, 0.5 and 1 mg/ml Heparin for 30 minutes at room temperature in 25 μl total volume. The bead-bound (B) and unbound or bead elution (E) fractions were collected, SDS sample buffer (New England Biolabs, Ipswich, Mass.) was added and the samples were incubated at 95° C. for 5 minutes. Both B and E samples were resolved on tricine 10% acrylamide gel and stained for protein."}, "[2]": {"test_system": "DNA-Nt.CviPII-Protein A complex", "experiment": "Gel-shift assay: dissociation of DNA-Nt.CviPII-Protein A complex by heparin", "type": "binding", "description": "From left to right: C is a control that is DNA in the absence of a NEFP or heparin. 0 is a control in which nicking endonuclease was added to DNA in the absence of heparin. The DNA-NEFP complex (DNA-Nt.CviPII-Protein A complex) is seen as a band at the top of the lane.\nTo establish that the inhibitory effect of heparin, sodium salt in untethered Nt.CviPII-Protein A fusion activity was due to selective dissociation between DNA substrate and fusion enzyme, a gel-shift assay was performed. Double stranded DNA substrate containing constant amounts of Nt.CviPII binding domains (CCA, 5′[…]-F, F=fluorescein (SEQ ID NO:9)) and 3.2 μM Nt.CviPII-Protein A fusion were combined in the presence of 1×NEBuffer 2 in the absence of magnesium for 30 minutes at room temperature to enable an enzyme-substrate complex to be formed. Increasing amounts of heparin, sodium salt (0, 2.3, 4.6, […], 20, 42, 83, 166, 330 μg/ml) was added to the total 50 μl reaction volume. It was observed that a heparin concentration of greater than 0.2 mgs/ml (at least […]) enabled complete dissociation of the DNA-Nt.CviPII-Protein A complex as observed by the appearance of bands corresponding to DNA alone in a native 6% retardation gel (Thermo Fisher Scientific, Waltham, Mass.). It was concluded that Heparin causes dissociation Nt.CviPII-Protein A fusions from the bound substrate DNA (FIG. 2B)."}, "[3]": {"test_system": "Nt.CviPII-Protein A fusion", "sequence (as listed by the source)": "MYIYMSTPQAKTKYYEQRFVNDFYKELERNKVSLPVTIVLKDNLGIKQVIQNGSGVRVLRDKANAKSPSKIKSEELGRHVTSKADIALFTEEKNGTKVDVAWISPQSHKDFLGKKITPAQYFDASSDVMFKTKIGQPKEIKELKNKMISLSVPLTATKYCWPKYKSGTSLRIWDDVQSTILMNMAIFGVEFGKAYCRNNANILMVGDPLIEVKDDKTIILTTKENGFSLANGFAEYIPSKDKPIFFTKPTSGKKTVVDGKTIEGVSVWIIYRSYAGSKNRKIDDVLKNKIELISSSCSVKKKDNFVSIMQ", "experiment": "Inhibition of nicking activity of Nt.CviPII-Protein A fusion by heparin sodium salt", "type": "biochemical", "conditions": "2.5 units Nt.CviPII-Protein A, 0.5 μg pUC19, NEBuffer 2, 40 minutes 37° C.", "description": "In lanes 1-9, 2.5 units of NEFP was added to 0.5 μgs of plasmid DNA in the presence of increasing amounts of heparin (0.15-10 mg/ml). Digestion was not observed when 0.3 mg heparin/ml or greater amounts are present.\nTo determine the effect of heparin sodium salt on the inhibition of nicking activities of Nt.CviPII-Protein A fusion, reaction tubes containing 10, 5, 2.5, 1.25, 0.62, 0.31, 0.15, and 0 mg/ml heparin, sodium salt were added to a 50 μl reaction, consisting of 5 μl 10×NEBuffer 2, 2.5 units Nt.CviPII-Protein A (as described in Example 1(B)), and 0.5 μg pUC19 DNA and incubated for 40 minutes 37° C. 10 μl of DNA loading dye mix (5×) was added to the samples and were resolved on a 10% polyacrylamide gel. The gel was stained with SYBR® Green (Molecular Probes, Eugene, Oreg.) and scanned on a Typhoon® imager (GE Healthcare Bio-Sciences, Marlborough, Mass.)."}, "[4]": {"test_system": "pBR322 circular double stranded DNA", "experiment": "Nicking activity of Protein G/A-gHNH fusion on plasmid DNA (agarose gel)", "type": "biochemical", "conditions": "1 μg pBR322, NEBuffer 2 with manganese ions, 50 μl, 37° C., 1 hour", "description": "The nicking activity of Protein G-HNH was compared to a second non-fused nicking endonuclease (Nt.CviPII) (2 units) in the same gel to determine a generalized and consistent cleavage profile and was also compared to a control in the lane labeled 0 containing no nicking endonuclease either fused or unfused.\nProtein G/A-gHNH fusion nicking activity was tested on pBR322 circular double stranded DNA using NEBuffer 2 in which magnesium ions were replaced by the same amount of manganese ions (1 mM). 1 μg of plasmid was used with 0.03 to 2 units of Protein G/A-gHNH fusion enzyme in a two-fold serial dilutions (2, 1, 0.5, 0.25, 0.125, 0.06, 0.03 units) in a total volume of 50 μl incubated at 37° C. for 1 hour. 10 μl of DNA loading dye mix (5×) was added to the nicked DNA. The nicked DNA samples were resolved on a 1% agarose gel and visualized under UV light. DNA fragment size was estimated along with 2 log DNA ladder (New England Biolabs, Ipswich, Mass.) and positive control Nt.CviPII (2 units) of the non-fused nicking endonuclease, (New England Biolabs, Ipswich, Mass.) digested pBR322 DNA (FIG. 1B). […] A representative figure supporting this conclusion is provided in FIG. 1B for Protein G-gHNH fusions."}}, "data": [{"molecule": "Heparin Sodium Salt", "values": [{"measurement": "effect of heparin on antibody bound to Protein A/G beads", "setting": "[1]; listed as Heparin", "result": "cannot dissociate Protein A/G-antibody reaction"}, {"measurement": "effect of heparin on antibody bound to Protein A/G beads", "setting": "[1]; listed as heparin", "result": "no elution or displacement of antibody occurred"}, {"measurement": "heparin concentration enabling complete dissociation of the DNA-Nt.CviPII-Protein A complex", "setting": "[2]; 3.2 μM Nt.CviPII-Protein A, fluorescein dsDNA, NEBuffer 2 without magnesium, room temperature", "result": "greater than 0.2 mgs/ml"}, {"measurement": "heparin concentration at which NEFP is released entirely from the DNA", "setting": "[2]; FIG. 2B legend, buffer without magnesium ions", "result": "> 4.6", "unit": "mg/mL"}, {"measurement": "heparin concentration giving total inhibition of nicking (no digestion)", "setting": "[3]", "result": "0.15 to 0.31", "unit": "mg/mL"}, {"measurement": "heparin concentration giving total inhibition of nicking (no digestion)", "setting": "[3]; listed as heparin", "result": "≥ 0.3", "unit": "mg/mL"}]}, {"molecule": "Protein G-gHNH: NEFP: Protein G fused via linker to gHNH nicking endonuclease, SEQ ID NO: 5 (protein) MKGETTTEAVDAATAEKVFKQYANDNGVDGEWTYDDATKTFTVTEKPEVIDASELTPAVTTYKLVINGKTLKGETTTEAVDAATAEKVFKQYANDNGVDGEWTYDDATKTFTVTEKPEVIDASELTPAVTTYKLVINGKTLKGETTTKAVDAETAEKAFKQYANDNGVDGVWTYDDATKTFTVTEGSATIVKKPLRPCCEFHCYNLTRERYCEEHRYKEKETQQDKNRYYDRFKRDKESTAFYRSKAWERLREQALMRDKGLCLHCKNNRKIKVADMVDHIIPIKVDPSLKLKLENLQSLCNPCHNRKTAEDKKKYG", "values": [{"measurement": "amount of fusion enzyme giving partial digestion of the DNA", "setting": "[4]", "result": 0.03, "unit": "units"}]}]}
